Data from patent publication US10980778B2, “Methods for treating multiple osteochondroma (MO)” (Clementia Pharmaceuticals Inc., priority 2016, dated 2021).
Like-named read-outs stand apart in the source and are kept apart here.

Columns and labels:
Fsp1-Ext1^CKO mice = assay: Effect of palovarotene on osteochondroma (OC) formation, alcian blue whole-mount skeletal staining of rib bones; assay type: in vivo
Source text: Biallelic conditional knock-out (CKO) of Ext1 using a Cre transgene driven by an Fsp1 promotor) (Fsp1-Ext1^CKO in mice leads to the formation of phenotypes characteristic of MO. Fsp1 expression in developing bone is restricted to the perichondrium and periosteum. Perichondrium-targeted Ext1 deletion in mice causes osteochondromatogenesis in long bones, vertebrae and ribs. Fsp1-Ext1^CKO mice appear normal at birth, present mild bone deformity by P (postnatal day) 28 and have normal life span. In these mice, bony protrusions consisting of bony tuberosities with a cartilage cap are first detectable after P14. These protrusions are consistent with the histological features of osteochondromas in human MO. By P28, all animals develop multiple osteochondromas that can be readily observed in whole-mount skeletal preparations. This phenotype supports the relevance of the Fsp1-Ext1^CKO mouse as a preclinical model of MO. It also mimics the findings observed in a previously developed mouse model of MO, the Col2a1-Ext1^CKO mice.
The therapeutic effect of palovarotene in MO was tested in the Fsp1-Ext1^CKO mouse model. The CKO mice were treated with palovarotene (1.05 mg/kg) or vehicle by oral gavage daily. Treatment was initiated on day 14 postpartum and continued daily for 4 weeks. The effect of palovarotene on the formation of osteochondromas (OCs) in the mouse model was evaluated using whole-mount skeletal preparation. At end of treatment, the mice were euthanized by CO2 inhalation and the carcasses were eviscerated and fixed in 95% ethanol overnight. The preparations were stained with alcian blue for 3 days, rinsed in 95% ethanol, and incubated in 2% KOH for 1-2 days. Stained preparations were cleaned in 20% glycerol/1% KOH for 14 days and transferred to 50% glycerol/50% ethanol for photography and storage. By examination under a dissecting microscope, an alcian blue-positive protrusion that was clearly distinguishable was considered as an OC. OCs were identified and counted in each of the 24 rib bones from each mouse.
The sum of these counts (total number of OCs at the rib bones) and the mean occurrence of response (number of rib bones showing no OCs vs. number of rib bones showing at least one OC) were reported for each treatment group.

Fsp1-Ext1CKO mice [1] = assay: Crown-rump length in MO mouse model; assay type: in vivo
Experimental: Crown-rump length, defined as mouse body length from snout to base of the tail, was measured using a ruler in vehicle and palovarotene treated Fsp1-Ext1CKO mice and untreated wild-type (WT) littermates at baseline (Study Day 1) and, 3 and 4 weeks post initiation of palovarotene treatment (Study Day 21 and 28, respectively). As show in FIG. 3, palovarotene treatment had no effect on crown-rump length after 4 weeks of daily oral treatment in Fsp1-Ext1CKO mice compared to vehicle controls.

Fsp1-Ext1CKO mice [2] = assay: Dose response of palovarotene to inhibit OC formation (P14 and P21 cohorts); assay type: in vivo; settings: for EC50 at AUC0-24 hr (percent decrease in total OCs at rib and limb bones): extrapolated exposure
Experimental: Nonclinical pharmacology data: Fsp1-Ext1CKO mice were administered three doses of palovarotene (0.269 mg/kg [low], 0.882 mg/kg [mid], or 1.764 mg/kg [high]) for 28 consecutive days starting treatment at Day 14 postpartum (P14 cohort), or for 21 consecutive days starting at Day 21 postpartum (P21 cohort).
To determine the dose exposure response, exposure in this study was extrapolated based on pharmacokinetic data obtained from adult wild-type (WT) mice with the assumption that pharmacokinetics in adult WT mice are similar to juvenile Fsp1-Ext 1CKO mice.

[3] = Observed pharmacokinetic parameters, fixed and weight-based dosing regimen; assay type: in vivo, human; settings: for AUC(0-t): human, in vivo, oral; for AUC Ratio (A/P) Mean (SD) / AUC Ratio (A/P) Median / AUC Ratio (A/P) Min / AUC Ratio (A/P) max: observed vs predicted
Experimental: Table 4 summarizes the pharmacokinetic parameters of mean and median AUC0-24 values for subjects receiving 2.5 mg and 5.0 mg equivalent doses of palovarotene. Skeletally mature subjects received fixed dose regimens, while the skeletally immature subjects <18 years old were dosed via weight adjusted equivalent doses.
One other parameter known to impact systemic exposure of palovarotene is food. For the clinical studies, all subjects are instructed to administer study medication at approximately the same time each day, and following a full meal, although the exact amount consumed is not recorded.

[4] = mean occurrence of 24 rib bones, 1.05 mg/kg daily × 28 days, p=0.0039 vs vehicle (Fisher's exact test)
[5] = PVO 2.5 mg Weight-Adjusted Equivalent
[6] = PVO 5 mg Weight-Adjusted Equivalent

## CC1(C)CCC(C)(C)c2cc(Cn3cccn3)c(/C=C/c3ccc(C(=O)O)cc3)cc21 [Palovarotene, 4-[(1E)-2-[5,6,7,8-Tetrahydro-5,5,8,8-tetramethyl-3-(1H-pyrazol-1-ylmethyl)-2-naphthalenyl]-ethenyl]-benzoic acid]
Fsp1-Ext1^CKO mice; 1.05 mg/kg daily × 28 days, oral gavage from day 14 postpartum, n=9, vehicle 147.3
  Total number of OCs at the rib bones Mean (95% CI): 28.33 (23.23-33.43)
Fsp1-Ext1^CKO mice; 1.05 mg/kg daily, 4 weeks, vs vehicle
  Effect on total number of OCs per rib bone and formation of OCs: reduced the total number of OCs per rib bone and prevent the formation of OCs
Fsp1-Ext1^CKO mice; [4]
  Number of rib bones showing at least one OC: 16
  Number of rib bones showing no OC: 8
Fsp1-Ext1^CKO mice; summary of the Examples
  Cartilage hyperplasia: reduced cartilage hyperplasia
  Number and size of osteochondromas observed: reduced the number and size of osteochondromas observed
Fsp1-Ext1CKO mice [1]; after 4 weeks of daily oral treatment, compared to vehicle controls
  Effect on crown-rump length: no effect
Fsp1-Ext1CKO mice [1]; summary of the Examples
  Long bone growth: able to maintain long bone growth
  Normal bone growth in the animal: did not interfere with normal bone growth
Fsp1-Ext1CKO mice [2]; 0.269, 0.882 or 1.764 mg/kg, 28 days from P14 or 21 days from P21, vs vehicle controls
  Occurrence of OCs: inhibited the occurrence of OCs in a dose-dependent manner
Fsp1-Ext1CKO mice [2]; 28 days from P14 vs 21 days from P21
  Efficacy P14 cohort compared to P21 cohort: Greater efficacy was observed with earlier and longer dosing in the P14 cohort
Fsp1-Ext1CKO mice [2]; P14 cohort
  EC50 at AUC0-24 hr (percent decrease in total OCs at rib and limb bones): 57 to 62 ng·h/mL
Fsp1-Ext1CKO mice [2]; P21 cohort
  EC50 at AUC0-24 hr (percent decrease in total OCs at rib and limb bones): 125 to 173 ng·h/mL
[3]; 2.5 mg and 5.0 mg equivalent doses, few subjects in 2.5 mg group
  Observed exposures using weight based dosing compared with fixed dosing: tended to be lower than fixed dosing
[3]; 2.5 mg, PVO 2.5 mg Fixed Dose, N=4, read-out: AUC0-24 h Mean (SD)
  AUC(0-t): 176 ng·h/mL
[3]; 2.5 mg, PVO 2.5 mg Fixed Dose, N=4, read-out: AUC0-24 h Median
  AUC(0-t): 149 ng·h/mL
[3]; 2.5 mg, PVO 2.5 mg Fixed Dose, N=4, read-out: AUC0-24 h Min
  AUC(0-t): 107 ng·h/mL
[3]; 2.5 mg, PVO 2.5 mg Fixed Dose, N=4, read-out: AUC0-24 h max
  AUC(0-t): 31 ng·h/mL
[3]; 2.5 mg, PVO 2.5 mg Weight-Adjusted Equivalent, N=3, read-out: AUC0-24 h Mean (SD)
  AUC(0-t): 98 ng·h/mL
[3]; 2.5 mg, PVO 2.5 mg Weight-Adjusted Equivalent, N=3, read-out: AUC0-24 h Median
  AUC(0-t): 78 ng·h/mL
[3]; 2.5 mg, PVO 2.5 mg Weight-Adjusted Equivalent, N=3, read-out: AUC0-24 h Min
  AUC(0-t): 37 ng·h/mL
[3]; 2.5 mg, PVO 2.5 mg Weight-Adjusted Equivalent, N=3, read-out: AUC0-24 h max
  AUC(0-t): 179 ng·h/mL
[3]; 5 mg, PVO 5 mg Fixed Dose, N=15, read-out: AUC0-24 h Mean (SD)
  AUC(0-t): 347 ng·h/mL
[3]; 5 mg, PVO 5 mg Fixed Dose, N=15, read-out: AUC0-24 h Median
  AUC(0-t): 320 ng·h/mL
[3]; 5 mg, PVO 5 mg Fixed Dose, N=15, read-out: AUC0-24 h Min
  AUC(0-t): 144 ng·h/mL
[3]; 5 mg, PVO 5 mg Fixed Dose, N=15, read-out: AUC0-24 h max
  AUC(0-t): 667 ng·h/mL
[3]; 5 mg, PVO 5 mg Weight-Adjusted Equivalent, N=6, read-out: AUC0-24 h Mean (SD)
  AUC(0-t): 249 ng·h/mL
[3]; 5 mg, PVO 5 mg Weight-Adjusted Equivalent, N=6, read-out: AUC0-24 h Median
  AUC(0-t): 218 ng·h/mL
[3]; 5 mg, PVO 5 mg Weight-Adjusted Equivalent, N=6, read-out: AUC0-24 h Min
  AUC(0-t): 139 ng·h/mL
[3]; 5 mg, PVO 5 mg Weight-Adjusted Equivalent, N=6, read-out: AUC0-24 h max
  AUC(0-t): 363 ng·h/mL
[3]; PVO 2.5 mg Fixed Dose
  AUC Ratio (A/P) Mean (SD): 1.1 (0.7)
  AUC Ratio (A/P) Median: 0.9
  AUC Ratio (A/P) Min: 0.6
  AUC Ratio (A/P) max: 2.1
[3]; [5]
  AUC Ratio (A/P) Mean (SD): 0.8 (0.6)
  AUC Ratio (A/P) Median: 0.6
  AUC Ratio (A/P) Min: 0.3
  AUC Ratio (A/P) max: 1.4
[3]; PVO 5 mg Fixed Dose
  AUC Ratio (A/P) Mean (SD): 1.3 (0.7)
  AUC Ratio (A/P) Median: 1.1
  AUC Ratio (A/P) Min: 0.6
  AUC Ratio (A/P) max: 2.9
[3]; [6]
  AUC Ratio (A/P) Mean (SD): 1.0 (0.3)
  AUC Ratio (A/P) Median: 0.9
  AUC Ratio (A/P) Min: 0.5
  AUC Ratio (A/P) max: 1.4
[3]; overall, observed vs predicted exposures
  AUCA/P ratio: ~1
